This passage reports Ki and GI50 results from patent US11596639B2, “Substituted indole Mcl-1 inhibitors” (Vanderbilt University, priority 2016, dated 2023).

The target of assay [1] is Mcl-1 (Homo sapiens (Human), UniProt Q07820). Kind of assay: TR-FRET binding assay, FITC-Bak peptide and MBP-tagged Mcl-1. As to conditions: read-out: Ki for Inhibition of Mcl-1 by TR-FRET assay. The procedure:
Compounds are diluted in DMSO in a 16-point, semilog serial dilution scheme. […] The plate was mixed and incubated for 3 hours at room temperature. […] TR-FRET signal is plotted and IC50 and Ki values are calculated in the same manner as the fluorescence polarization anisotropy based competition assays.

In assay [2] the test system is H929 human cancer cell lines. Description: Cellular viability / proliferation (Cell TiterGlo, 72 h). Format: cell-based. The settings on record: Homo sapiens, NCI-H929, 72 h, read-out: GI50 on cellular proliferation of H929 human cancer cell lines, H929 cells, 72 h, Cell TiterGlo, 10% FBS. Put shortly: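 H929 cells plated at 1,000/well in 10% FBS medium received a 2-fold serial compound dilution (top 50 μM, DMSO <1%) 24 h later. After 72 h, viability was read by CellTiter-Glo luminescence. IC50 came from a four-parameter fit.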

Chain of Mcl-1 (Q07820 172-327): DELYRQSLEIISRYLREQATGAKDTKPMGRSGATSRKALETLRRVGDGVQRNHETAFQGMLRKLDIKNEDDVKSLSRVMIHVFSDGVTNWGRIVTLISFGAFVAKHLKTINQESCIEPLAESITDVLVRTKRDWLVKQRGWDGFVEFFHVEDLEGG

As for `COc1ccc(N2C[C@@H](C)n3c(c(CCCOc4cc(C)c(Cl)c(C)c4)c4ccc(Cl)c(-c5c(C)nn(C)c5C)c43)C2=O)c2c1c(C(=O)O)cn2Cc1ccccn1` [Example 617, (R)-7-(7-chloro-10-(3-(4-chloro-3,5-dimethylphenoxy)propyl)-4-methyl-1-oxo-6-(1,3,5-trimethyl-1H-pyrazol-4-yl)-3,4-dihydropyrazino[1,2-a]indol-2(1H)-yl)-4-methoxy-1-(pyridin-2-ylmethyl)-1H-indole-3-carboxylic acid], the Ki in assay [1] was less than 0.0002 µM. For the same molecule, the GI50 in assay [2] was 0.44 µM.

In the case of `COCCn1cc(N2C[C@@H](C)n3c(c(CCCOc4cc(C)c(Cl)c(C)c4)c4ccc(Cl)c(-c5c(C)nn(C)c5C)c43)C2=O)c2cc(-c3ncn(CC4CN(C(C)=O)C4)n3)ccc21` [Example 618, (R)-2-(5-(1-((1-Acetylazetidin-3-yl)methyl)-1H-1,2,4-triazol-3-yl)-1-(2-methoxyethyl)-1H-indol-3-yl)-7-chloro-10-(3-(4-chloro-3,5-dimethylphenoxy)propyl)-4-methyl-6-(1,3,5-trimethyl-1H-pyrazol-4-yl)-3,4-dihydropyrazino[1,2-a]indol-1(2H)-one], the Ki in assay [1] is 0.0038 µM. Further, in assay [2], the GI50 stood at 0.36 µM.

For the molecule `COc1ccc(N2C[C@@H](C)n3c(c(CCCOc4cc(C)c(Cl)c(C)c4)c4ccc(Cl)c(-c5c(C)nn(C)c5C)c43)C2=O)c2c1c(C(=O)O)cn2Cc1cc(C)ccn1` [Example 619, (R)-7-(7-chloro-10-(3-(4-chloro-3,5-dimethylphenoxy)propyl)-4-methyl-1-oxo-6-(1,3,5-trimethyl-1H-pyrazol-4-yl)-3,4-dihydropyrazino[1,2-a]indol-2(1H)-yl)-4-methoxy-1-((4-methylpyridin-2-yl)methyl)-1H-indole-3-carboxylic acid], the Ki in assay [1] was 0.00026 µM. Also, the GI50 in assay [2] was determined as 0.47 µM.

With `Cc1cc(OCCCc2c3n(c4c(-c5c(C)nn(C)c5C)c(Cl)ccc24)[C@H](C)CN(c2cn(CC(N)=O)c4ccc(C(=O)O)cc24)C3=O)cc(C)c1Cl` [Example 620, (R)-1-(2-amino-2-oxoethyl)-3-(7-chloro-10-(3-(4-chloro-3,5-dimethylphenoxy)propyl)-4-methyl-1-oxo-6-(1,3,5-trimethyl-1H-pyrazol-4-yl)-3,4-dihydropyrazino[1,2-a]indol-2(1H)-yl)-1H-indole-5-carboxylic acid], the Ki in assay [1] was less than 0.0002 µM. In addition, the GI50 in assay [2] was found to be 7.6 µM.

Regarding `Cc1cc(OCCCc2c3n(c4c(-c5c(C)nn(C)c5C)c(Cl)ccc24)[C@H](C)CN(c2cc(CN4CCOCC4)cc4cc(C(=O)O)n(C)c24)C3=O)cc(C)c1Cl` [Example 623, (R)-7-(7-chloro-10-(3-(4-chloro-3,5-dimethylphenoxy)propyl)-4-methyl-1-oxo-6-(1,3,5-trimethyl-1H-pyrazol-4-yl)-3,4-dihydropyrazino[1,2-a]indol-2(1H)-yl)-1-methyl-5-(morpholinomethyl)-1H-indole-2-carboxylic acid], in assay [1], the Ki is less than 0.0002 µM. The GI50 in assay [2] is less than 0.2 µM.

On to `COCCn1cc(N2C[C@@H](C)n3c(c(CCCOc4cc(C)c(Cl)c(C)c4)c4ccc(Cl)c(-c5c(C)nn(C)c5C)c43)C2=O)c2cc(-c3ncn(CC4CCOCC4)n3)ccc21` [Example 624, (R)-7-Chloro-10-(3-(4-chloro-3,5-dimethylphenoxy)propyl)-2-(1-(2-methoxyethyl)-5-(1-((tetrahydro-2H-pyran-4-yl)methyl)-1H-1,2,4-triazol-3-yl)-1H-indol-3-yl)-4-methyl-6-(1,3,5-trimethyl-1H-pyrazol-4-yl)-3,4-dihydropyrazino[1,2-a]indol-1(2H)-one], for which the Ki in assay [1] came out at 0.0096 µM. The GI50 in assay [2] was found to be 0.43 µM.
